Laboratory results: patent US20090143388A1, “TREATMENT OF BRAIN DISORDERS” (priority 2007, published 2009)
“Also recorded” adds a separate entry of the source.

How the values were obtained:
[1] = tested on: MPP^+-induced hydroxyl radical (.OH) in the mitochondria; test: MPP+-induced hydroxyl radical (2,3-DHBA) production in sub-mitochondrial particles; type: biochemical; conditions: for MPP+-induced 2,3-DHBA (OH adduct of salicylate) production in the mitochondria: irsogladine 0.01-1 mM, MPP+ 100 μM, sub-mitochondrial particles, 30 min; for increase in the production of 2,3-DHBA (OH production): sub-mitochondrial particles incubated with MPP+ (100 μM)
Protocol: FIG. 1. Irsogladine scavenges MPP^+-induced OH from the mitochondria. Sub-mitochondrial particles were incubated with the neurotoxic metabolite of MPTP, 1-methyl-4-phenyl pyridinium ion (MPP^+) and salicylic acid in the presence and absence of irsogladine. The resulting OH adducts of salicylate, 2,3-dihydroxy benzoic acid (2,3-DHBA) was assayed using a HPLC equipped with electrochemical detector.
Irsogladine scavenges MPP^+-induced hydroxyl radical (.OH) in the mitochondria. The oxidative metabolite of MPTP, 1-methyl-4-phenylpyridinium ion (MPP^+) is selectively taken into the dopaminergic neurons through dopamine transporters, and sequestered in the mitochondria.
Preparation of sub-mitochondrial particles and estimation of hydroxyl radical. Mitochondrial P2 fraction was obtained by making a 10% homogenate of the cerebral cortex, with a glass-Teflon homogenizer in 0.32 M sucrose in cold 10 mM potassium phosphate buffer, pH 7.2. The homogenate was centrifuged at 1,000×g for 10 min at 4° C. using a Sorvall centrifuge. The supernatant was centrifuged at 10,000×g for 30 min. The pellet was resuspended in the same volume of ice-cold 50 mM Tris in 10 mM potassium phosphate buffer (pH 7.2) and centrifuged at 10,000×g for 30 min. This step was repeated once. The pellet thus obtained was suspended in the same volume of ice-cold 10 mM potassium phosphate buffer, pH 7.2 and kept overnight at −20° C. The mitochondrial suspension was thawed, and the protein content was estimated.
The .OH adduct of salicylate, 2,3-dihydroxybenzoic acid (DHBA), was assayed employing HPLC-electrochemistry as described earlier. The ex-vivo OH production was tested in sub-mitochondrial particles. Mitochondrial fraction was incubated with MPP^+ (100 μM) and phosphate buffer (0.1 M) for 5 min. Sodium salicylate (0.75 mM) and different concentrations of irsogladine (0.01-1 mM) were added 5 min after the addition of MPP^+ and incubated for 30 min. The reaction was stopped by adding equal amount of ice-cold perchloric acid (0.1 M) containing 0.01% EDTA, kept on ice for 30 min and then centrifuged at 10,000×g for 5 min. The supernatant was injected into the HPLC system for the assay of 2,3-DHBA. Standard solution containing 2,3-DHBA was injected prior to and after the analyses of the samples, and the products formed are expressed as pmol/mg protein/min.

[2] = tested on: Balb/c mice; test: Striatal DA, DOPAC and HVA by HPLC-electrochemistry in MPTP-treated mice; type: in vivo
Protocol: FIG. 2. Irsogladine reverses MPTP-induced reductions in striatal DA metabolism. Striatal DA (A) and its metabolites, DOPAC (B) and HVA (C) were assayed employing a sensitive HPLC-electrochemical procedure on the 5th day following the administration of MPTP (30 mg/kg; administered twice, 16 h apart, i.p.). Irsogladine (25, 50 and 100 mg/kg, p.o.) was administered for two days at 12 h intervals following the second MPTP injection. Results given are mean±S.E.M., n=6-8 for control groups and 10-12 for MPTP-treated groups (*p<0.05 vs. control; Student's t-test).
(§1) Animals. Adult male Balb/c mice, weighing 20-25 g were used in the present study. They were housed under standard conditions of temperature (22±1° C.), humidity (60±5%) and illumination (12-h light/dark cycle). The experimental protocol met the National Guidelines on the ‘Proper Care and Use of Animals in Laboratory Research’ (Indian National Science Academy, New Delhi, 2000) and was approved by the Animal Ethics Committee of the Institute. The procedures adhered to the NIH Guidelines for the Care and Use of Laboratory Animals.
(§2) Experimental design. The animals were divided into eight groups. The first four groups of animals received either vehicle (0.5% CMC) or different doses of irsogladine (25, 50, and 100 mg/kg). The fifth group of animals was administered with MPTP. The remaining three groups received the two doses of MPTP, and different doses of irsogladine (25, 50, and 100 mg/kg). Each of the control groups consisted of 6-8 animals; while MPTP treated groups consisted of 10-12 animals. The total period of study was 5 days. Each experiment was repeated at least twice on separate days.
(§3) MPTP was dissolved in normal saline and administered intraperitonially (i.p.), twice, 16 h apart, at the dose of 30 mg/kg to mice. The animals received the first injections at 1700 h and the second at 0900 h the next day. Different doses of irsogladine (25, 50, and 100 mg/kg) were suspended in 0.5% sodium CMC and administered to control and MPTP-treated mice. Irsogladine administration started 30 min after the second MPTP injection and continued at an interval of 12 h for the next two days. The volume of injection was 10 μl/g body weight.
(§4) Analysis of biogenic amines by HPLC-electrochemistry. DA, DOPAC, HVA, 5-HT, and 5-HIAA were assayed employing HPLC equipped with an electrochemical detector. Animals were sacrificed on the 5th day by cervical dislocation. Striata were quickly dissected out from the left and right hemispheres of the brain, weighed, sonicated in chilled HClO4 (0.1 M) containing 0.05% EDTA and centrifuged at 12,500×g for 5 min. The supernatant was injected into an HPLC-ECD system (Merck-Hitachi, Germany). The biogenic amines were separated on an ion-pair Ultrasphere RP analytical column (Beckmann, Calif.). The mobile phase contained 8.65 mM heptane sulfonic acid, 0.27 mM EDTA, 13% acetonitrile (HPLC grade), 0.45% triethylamine, and 0.25% phosphoric acid (v/v). The flow rate was 0.7 ml/min and the glassy carbon working electrode was kept at 0.74 V.

[3] = tested on: Balb/c mice; test: Striatal 5-HT and 5-HIAA levels by HPLC-electrochemistry; type: in vivo; conditions: for level of 5-HIAA, in words / level of serotonin (5-HT), in words: animals treated with MPTP and/or irsogladine; for 5-HIAA (pmol/mg tissue; Mean ± SEM) / 5-HT (pmol/mg tissue; Mean ± SEM): striatum, 5th day
Protocol: Serotonin (5-HT) and its metabolite were assayed employing a sensitive HPLC-electrochemical procedure in the striata of Balb/c mice on 5th day following MPTP treatment (30 mg/kg; administered twice, 16 h apart, i.p.). Irsogladine (25, 50 and 100 mg/kg, p.o.) was administered for two days at 12 h intervals following second MPTP injection. Results given are mean±S.E.M., n=6-8 for control groups and 10-12 for MPTP-treated groups
as §1, §2, §3, §4

[4] = tested on: Balb/c mice; test: MPTP-induced akinesia; type: in vivo
Protocol: (§5) FIG. 3. Effect of irsogladine on MPTP-induced akinesia (A) and catalepsy (B). Assessment of catalepsy was undertaken 2 h after the treatment of MPTP in Balb/c mice. […] Results given are mean±S.E.M., n=6-8 for control group and 10-12 for MPTP-treated groups (*p<0.01 vs. control; Mann-Whitney Rank Sum test).
as §2, §3
Akinesia. Akinesia was measured by noting the latency in seconds (s) of the animals to move all four limbs and the test was terminated if the latency exceeded 180 s. Each animal was initially acclimatized for 5 min on a wooden elevated platform (40 cm×40 cm×30 cm) used for measuring akinesia in mice. Using a stopwatch, the time taken (s) by the animal to move all the four limbs was recorded. This exercise was repeated five times for each animal.

[5] = tested on: Balb/c mice; test: MPTP-induced catalepsy; type: in vivo; conditions: for catalepsy (rigidity), drug alone: irsogladine alone, no MPTP
Protocol: as §5, §2, §3
Catalepsy. The term implies the inability of an animal to correct an externally imposed posture. Catalepsy was measured by placing the animals on a flat horizontal surface with both the hind limbs on a square wooden block (3 cm high) and the latency in seconds was measured to move the hind limbs from the block to the ground. The animals were initially acclimatized on the wooden platform.

[6] = tested on: Balb/c mice; test: Swim-ability (swim score) after MPTP; type: in vivo; conditions: 4th day
Protocol: FIG. 4. Irsogladine attenuates MPTP-induced swim disability in mice. Effect of different doses of Irsogladine on the swimming ability of Balb/c mice was tested in warm water (27±2° C.) on the fourth day following the treatment of MPTP (30 mg/kg, i.p., twice, 16 h apart). Swim-scores were recorded on a performance intensity scale of 0-3 for all the animals for 10 min. Results given are mean±S.E.M., n=6-8 for control groups and 10-12 for MPTP-treated groups (p≦0.05; vs. control; Wilcoxon Signed Rank test for group comparison).
as §2
MPTP was dissolved in normal saline and administered intraperitonially (i.p.), twice, 16 h apart, at the dose of 30 mg/kg to mice. The animals received the first injections at 1700 h and the second at 0900 h the next day. […]

[7] = irsogladine post-treatment in MPTP-treated mice
[8] = irsogladine 25 mg/kg p.o. + MPTP
[9] = irsogladine 25 mg/kg p.o., no MPTP
[10] = irsogladine 50 mg/kg p.o. + MPTP
[11] = irsogladine 50 mg/kg p.o., no MPTP
[12] = irsogladine 100 mg/kg p.o. + MPTP
[13] = irsogladine 100 mg/kg p.o., no MPTP
[14] = highest dose of irsogladine in MPTP-treated mice
[15] = irsogladine 25, 50, 100 mg/kg p.o. in MPTP-treated mice, 2 h after second MPTP injection
[16] = MPTP alone (30 mg/kg i.p. twice, 16 h apart)
[17] = MPTP 30 mg/kg i.p. twice, 2 h after second injection, compared to saline treated mice

SMILES: Nc1nc(N)nc(-c2cc(Cl)ccc2Cl)n1 [Irsogladine, 2,4-diamino-6-(2,5-dichlorophenyl)-s-triazine]
- MPP+-induced 2,3-DHBA (OH adduct of salicylate) production in the mitochondria [1]: significantly attenuated
- MPP+-induced 2,3-DHBA (OH adduct of salicylate) production in the mitochondria ([1]; listed as irsogladine): dose-dependently scavenged
- protection of striatal DA ([2]; irsogladine 25, 50 and 100 mg/kg p.o., b.i.d. for 2 days, post-treatment in MPTP-treated mice, 5th day): significant dose-dependant protection
- alteration of striatal DA ([2]; irsogladine alone in control animals): did not cause significant alteration
- reversal of MPTP-induced reduction of striatal DOPAC [2, 7]: dose-dependant reversal
- reversal of MPTP-induced reduction of striatal HVA [2, 7]: dose-dependant reversal
- alteration of striatal DOPAC level ([2]; irsogladine treatment alone): did not cause any significant alterations
- alteration of striatal HVA level ([2]; irsogladine treatment alone): did not cause any significant alterations
- level of 5-HIAA, in words [3]: not altered
- level of serotonin (5-HT), in words [3]: not altered
- 5-HIAA (pmol/mg tissue; Mean ± SEM) [3, 8]: 2.11 ± 0.17 pmol/mg tissue
- 5-HT (pmol/mg tissue; Mean ± SEM) [3, 8]: 2.64 ± 0.24 pmol/mg tissue
- 5-HIAA (pmol/mg tissue; Mean ± SEM) [3, 9]: 2.32 ± 0.31 pmol/mg tissue
- 5-HT (pmol/mg tissue; Mean ± SEM) [3, 9]: 2.52 ± 0.34 pmol/mg tissue
- 5-HIAA (pmol/mg tissue; Mean ± SEM) [3, 10]: 2.88 ± 0.17 pmol/mg tissue
- 5-HT (pmol/mg tissue; Mean ± SEM) [3, 10]: 2.97 ± 0.27 pmol/mg tissue
- 5-HIAA (pmol/mg tissue; Mean ± SEM) [3, 11]: 2.99 ± 0.29 pmol/mg tissue
- 5-HT (pmol/mg tissue; Mean ± SEM) [3, 11]: 2.96 ± 0.61 pmol/mg tissue
- 5-HIAA (pmol/mg tissue; Mean ± SEM) [3, 12]: 2.01 ± 0.09 pmol/mg tissue
- 5-HT (pmol/mg tissue; Mean ± SEM) [3, 12]: 2.68 ± 0.24 pmol/mg tissue
- 5-HIAA (pmol/mg tissue; Mean ± SEM) [3, 13]: 2.32 ± 0.16 pmol/mg tissue
- 5-HT (pmol/mg tissue; Mean ± SEM) [3, 13]: 2.52 ± 0.28 pmol/mg tissue
- attenuation of MPTP-induced akinesia, highest dose [4, 14]: complete
- attenuation of MPTP-induced akinesia [4, 15]: dose-dependently reduced; also recorded: dose-dependently attenuated
- akinesia, drug alone ([4]; irsogladine alone, no MPTP): absent
- attenuation of MPTP-induced catalepsy, highest dose [5, 14]: complete
- attenuation of MPTP-induced catalepsy [5, 15]: dose-dependently reduced; also recorded: dose-dependently attenuated
- catalepsy (rigidity), drug alone [5]: does not cause catalepsy
- catalepsy (rigidity), drug alone ([5]; listed as irsladine): absent
- improvement of swim score ([6]; irsogladine post-treatment in MPTP-treated mice, dose-dependently): significantly improved

SMILES: C[n+]1ccc(-c2ccccc2)cc1 [MPP^+, 1-methyl-4-phenylpyridinium ion]
- increase in the production of 2,3-DHBA (OH production) [1]: 5 fold
- increase in the production of 2,3-DHBA (OH production) ([1]; listed as MPP+): about 5 fold

SMILES: CN1CC=C(c2ccccc2)CC1 [MPTP, 1-methyl-4-phenyl-1,2,3,6-tetrahydropyridine]
- depletion of striatal DA ([2]; MPTP 30 mg/kg i.p., 2 times 16 h apart, 5th day, compared to saline-injected mice): 55%
- level of 5-HIAA, in words [3]: not altered
- level of serotonin (5-HT), in words [3]: not altered
- 5-HIAA (pmol/mg tissue; Mean ± SEM) [3, 16]: 2.50 ± 0.24 pmol/mg tissue
- 5-HT (pmol/mg tissue; Mean ± SEM) [3, 16]: 2.77 ± 0.31 pmol/mg tissue
- akinetic behavior induced by MPTP [4, 17]: significant akinetic
- cataleptic behavior induced by MPTP [5, 17]: cataleptic
- swim score after MPTP ([6]; MPTP 30 mg/kg i.p. twice, vs sham-treated animals, from the 2nd minute onwards): significant reduction
